The source of these data is US5223178A (priority 1990, dated 1993).

In brackets after ≈: the same amount, converted by molar mass. Where two headings read alike, the source gives them in different places.

In one assay the test system is Alternaria solani. Put plainly: PDA plate mycelial radial growth inhibition (paint film mildew fungi), Table 1. Type of assay: cell-based. The settings on record: PDA plates, read-out: EC75 (concentration giving 75% control of hyphal growth). Here is the method:
(§1) The test was run as follows. Potato dextrose agar (PDA) was dissolved in water (30 g PDA/1) and autoclaved at 15 psi for 15 minutes. PDA was purchased from Difco. Triazoles were dissolved in a small quantity of methanol and added to autoclaved, molten potato dextrose agar in a dilution series to give 0.01, 0.1, 1, 10 and 100 ug ml^-1. Final methanol content of the highest dose was included. The molten agar was pipetted into Petri plates (15 ml per plate) and allowed to set. Two 5 mm mycelial plugs were removed from mother cultures of each of the fungal species tested, and were placed near the edge of the test plates. When colonies were 10-40 mm in diameter, the radial mycelial growth was measured and EC75 values were determined on log-probit paper.
EC75 values (concentration giving 75% control of hyphal growth) are reported.

In the next assay the test system is Piricularia oryzae. Put plainly: microbe, parasite or virus in culture. It counts as cell-based. Conditions: 72 h.
The next assay has as its system Aspergillus niger. In words: Paint film mildewcide popsickle stick test, Table 6. Conditions: A. niger, 10 days, 30° C., 95% RH. Here is the method: (§2) Testing is described below.
(§3) Testing was done in a commercial acrylic-based latex paint with conventional pigments, dispersants, and the like. Texanol (R) is trimethyl-1,3-pentanediol monisobutyrate supplied by Eastman Chemical. "Latex" is a latex of a copolymer of butyl acrylate and methyl methacrylate.
(§4) To a sealable container was charged 100 parts of the paint formulation and the desired triazole concentration. The sample was homogenized for 15 minutes each, then blended and remixed.
(§5) Three triazoles were evaluated for their effectiveness as paint film mildewcides at […] and 10 lbs/100 gallons in a laboratory popsickle stick test. Untreated controls were included in the test.
(§6) Duplicate popsickle sticks painted with the treated and untreated paint sample were inoculated with Aureobasidium pullulans and Aspergillus niger. The sticks were inoculated for 10 days at 30° C. and 95% RH and samples were rated for fungal growth.

Another assay relates to Aureobasidium pullulans. Described as above. The settings on record: A. pullulans, 10 days, 30° C., 95% RH. Here is the method:
as §2, §3, §4, §5, §6

The next assay deals with Aspergillus flavus. Put plainly: PDA plate mycelial radial growth inhibition (paint film mildew fungi), Table 2. It counts as cell-based. The settings on record: read-out: EC50 (concentration giving 50% control of hyphal growth). Here is the method:
as §1
(§7) EC50 values (concentration giving 50% control of hyphal growth) are reported.

In a further assay the test system is Aureobasidum pullulans. The assay is described as above. Type of assay: cell-based. Conditions: read-out: EC50 (concentration giving 50% control of hyphal growth). Here is the method: as §1, §7
For the next assay, the system named is Cladisporium resinae. Described as above. Type of assay: cell-based. The settings on record: read-out: EC50 (concentration giving 50% control of hyphal growth). Here is the method:
as §1, §7

In the next assay the test system is Gloeophyllum tradeum. In words: Wood decay fungi radial growth inhibition on PDA, Table 7. Type of assay: cell-based. Conditions: read-out: EC50 (concentration giving 50% control of hyphal growth). Here is the method: (§8) The test was run as follows. Potato dextrose agar (PDA) was dissolved in water (39 g/l) and autoclaved at 15 psi for 15 min. PDA was purchased from Difco. The triazole was dissolved in a small quantity of dimethylsulfoxide (DMSO) and diluted to appropriate concentrations with the same solvent. Ten microliters of the appropriate solution was added to each of five wells of a Falcon 6 well tissue culture dish. To the sixth well was added ten microliters of DMSO as a control. Five ml of molten PDA was then added to each of the wells to give […] μg ml-1 of triazole. The plate was gently agitated to afford a uniform mixture. Upon cooling, the dishes were inoculated with a six mm agar plug from a freshly grown culture of the test organism. The assay plates were then incubated at room temperature and evaluated when the radial growth in the control well had reached approximately 30 mm. The radial growth for the treated wells was measured and the growth inhibition and EC50 values were calculated using non-linear regression analysis. Data are shown in Table 7 for triazoles VIII and IX (Table). EC50 values (concentration giving 50% control of hyphal growth) are reported.

The next assay has as its system Phialophora mutabilis. The description is as above. It counts as cell-based. The settings on record: Coniochaeta mutabilis, room temperature, read-out: EC50 (concentration giving 50% control of hyphal growth). Here is the method: as §8
The test system of a further assay is Poria placenta. Described as above. Type of assay: cell-based. The settings on record: room temperature, read-out: EC50 (concentration giving 50% control of hyphal growth). Here is the method: as §8
Another assay relates to Trametes Versicolor. The assay is described as above. Type of assay: cell-based. Conditions: room temperature, read-out: EC50 (concentration giving 50% control of hyphal growth). Here is the method:
as §8

Where [1] appears, read: pH 3.5, read-out: EC90 for mycelial growth.
The mark [2] stands for this setting: pH 4.8, read-out: EC90 for mycelial growth.
[3] abbreviates: pH 5.4, read-out: EC90 for mycelial growth.
Setting [4] is: pH 6.3, read-out: EC90 for mycelial growth.
Where [5] appears, read: pH 7.2, read-out: EC90 for mycelial growth.
Setting [6] is: pH 7.7, read-out: EC90 for mycelial growth.
Setting [7] is: pH 8.7, read-out: EC90 for mycelial growth.
The mark [8] stands for this setting: pH 9.8, read-out: EC90 for mycelial growth.
Setting [9] is: pH 11.2, read-out: EC90 for mycelial growth.

Turning to `N#CC(CCc1ccc(Cl)cc1)(Cn1cncn1)c1ccccc1` (stereo not drawn) [I, α-[2-(4-chlorophenyl)ethyl]-α-phenyl-1H-1,2,4-triazole-1-propanenitrile], the EC75 in the assay with Alternaria solani was found to be 5 µg/mL (≈ 14.8 µM). Also, the EC90 (usually the concentration needed for an effect of 90%) with Piricularia oryzae (setting [1]) was found to be 0.5 µg/mL (≈ 1.48 µM); in the assay on Piricularia oryzae (setting [2]), 0.1 µg/mL (≈ 0.297 µM); in the assay on Piricularia oryzae (setting [3]), 0.1 µg/mL (≈ 0.297 µM); in the assay on Piricularia oryzae (setting [4]), 0.1 µg/mL (≈ 0.297 µM); in the assay on Piricularia oryzae (setting [5]) it was 0.1 µg/mL (≈ 0.297 µM); in the assay on Piricularia oryzae (setting [6]), 0.1 µg/mL (≈ 0.297 µM). The EC90 in the assay with Piricularia oryzae (setting [7]), with Piricularia oryzae (setting [8]) and in the assay with Piricularia oryzae (setting [9]) was 0.1 µg/mL (≈ 0.297 µM) in each case. Also, the Fungal growth rating in the assay with Aspergillus niger (replicate 1, 1 lbs/100 gal) is given as 4+; with Aspergillus niger (replicate 1, 5 lbs/100 gal), 4+; in the assay on Aspergillus niger (replicate 1, 10 lbs/100 gal), 3+; with Aspergillus niger (replicate 2, 1 lbs/100 gal), 4+; in the assay on Aspergillus niger (replicate 2, 5 lbs/100 gal), 3+; with Aspergillus niger (replicate 2, 10 lbs/100 gal), 3+. Also, the Fungal growth rating in the assay on Aureobasidium pullulans (replicate 1, 1 lbs/100 gal) is on record as 2+; with Aureobasidium pullulans (replicate 2, 1 lbs/100 gal), 2+.

On to `CCCCC(C#N)(Cn1cncn1)c1ccc(Cl)cc1` (stereo not drawn) [II, α-n-butyl-α-4-chlorophenyl-1H-1,2,4-triazole-1-propanenitrile], for which the EC90 with Piricularia oryzae (setting [1]) stood at 5 µg/mL (≈ 17.3 µM); with Piricularia oryzae (setting [2]), 4.5 µg/mL (≈ 15.6 µM); with Piricularia oryzae (setting [3]) it was 4.5 µg/mL (≈ 15.6 µM); with Piricularia oryzae (setting [4]), 4.5 µg/mL (≈ 15.6 µM); in the assay on Piricularia oryzae (setting [5]), 4.5 µg/mL (≈ 15.6 µM); in the assay on Piricularia oryzae (setting [6]) it was 4.5 µg/mL (≈ 15.6 µM). Besides, the EC90 in the assay with Piricularia oryzae (setting [7]) came out at 5 µg/mL (≈ 17.3 µM); in the assay on Piricularia oryzae (setting [8]) it was 4.5 µg/mL (≈ 15.6 µM); in the assay on Piricularia oryzae (setting [9]), 4.5 µg/mL (≈ 15.6 µM). The Fungal growth rating is listed as 3+ with Aspergillus niger (replicate 1, 1 lbs/100 gal); 2+ in the assay with Aspergillus niger (replicate 1, 5 lbs/100 gal); 1+ in the assay with Aspergillus niger (replicate 1, 10 lbs/100 gal); 2+ in the assay on Aspergillus niger (replicate 2, 1 lbs/100 gal); 3+ in the assay on Aureobasidium pullulans (replicate 1, 1 lbs/100 gal); 2+ with Aureobasidium pullulans (replicate 1, 5 lbs/100 gal). The Fungal growth rating was 2+ with Aureobasidium pullulans (replicate 1, 10 lbs/100 gal); 4+ in the assay with Aureobasidium pullulans (replicate 2, 1 lbs/100 gal); 2+ with Aureobasidium pullulans (replicate 2, 5 lbs/100 gal); 1+ in the assay on Aureobasidium pullulans (replicate 2, 10 lbs/100 gal).

Consider `CCCCC(C#N)(Cn1cncn1)c1ccc(Cl)cc1` (stereo not drawn) [Structure IX, α-n-butyl-α-4-chlorophenyl-1H-1,2,4-triazole-1-propanenitrile], for which the EC50 in the assay with Aspergillus flavus was found to be 1.2 µg/mL (≈ 4.16 µM); in the assay on Aureobasidum pullulans, 0.5 µg/mL (≈ 1.73 µM); in the assay with Cladisporium resinae, 1.7 µg/mL (≈ 5.89 µM); in the assay with Gloeophyllum tradeum, 0.313 µg/mL (≈ 1.08 µM); in the assay with Phialophora mutabilis it was 1.45 µg/mL (≈ 5.01 µM); in the assay with Poria placenta, 0.228 µg/mL (≈ 0.79 µM). In addition, the EC50 with Trametes Versicolor is 0.118 µg/mL (≈ 0.409 µM).

As to `N#CC(CCc1ccc(Cl)cc1)(Cn1cncn1)c1ccccc1` (stereo not drawn) [Structure VIII, α-[2-(4-chlorophenyl)ethyl]-α-phenyl-1H-1,2,4-triazole-1-propanenitrile], the EC50 in the assay on Aspergillus flavus was found to be 3.5 µg/mL (≈ 10.4 µM); with Cladisporium resinae, 0.025 µg/mL (≈ 0.0742 µM); in the assay on Gloeophyllum tradeum, 0.158 µg/mL (≈ 0.469 µM); with Phialophora mutabilis, 0.612 µg/mL (≈ 1.82 µM); in the assay on Poria placenta, 0.175 µg/mL (≈ 0.52 µM); in the assay on Trametes Versicolor, 0.061 µg/mL (≈ 0.181 µM).
